In this series the test system is rodent lifetime carcinogenesis bioassay, tumor incidence TD50. Briefly: chronic cancer bioassays in animals – CPDB, compiled studies (AID 1745844).

The source made the active and inactive calls. No rule for the calls is given here.

What is called TD50 is the 50% point of the dose-response relation for the toxic effect studied. As to `CC(C)(OCc1ccc(-c2ccc(Cl)cc2)cc1)C(=O)O`, the carcinogen call by setting is: (hamster, strain Syrian Golden, females, in feed, site: liver, lesion: one or several types, types not named, dosed 104 weeks, study length 104 weeks) “negative (inactive)”; (hamster, strain Syrian Golden, females, in feed, site: lung, lesion: one or several types, types not named, dosed 104 weeks, study length 104 weeks) “negative (inactive)”; (hamster, strain Syrian Golden, males, in feed, site: liver, lesion: one or several types, types not named, dosed 104 weeks, study length 104 weeks) “negative (inactive)”. Also, the TD50 reads like this: (hamster, strain Syrian Golden, males, in feed, site: lung, lesion: one or several types, types not named, dosed 104 weeks, study length 104 weeks) 1510 mg/kg/day (inactive); (mouse, strain C57BL/10J, females, in feed, site: liver, lesion: hepatocellular carcinoma, dosed 78 weeks, study length 78 weeks) 870 mg/kg/day; (mouse, strain C57BL/10J, females, in feed, site: lung, lesion: one or several types, types not named, dosed 78 weeks, study length 78 weeks) 1010 mg/kg/day; (mouse, strain C57BL/10J, males, in feed, site: liver, lesion: hepatocellular adenoma, dosed 78 weeks, study length 78 weeks) 154 mg/kg/day; (mouse, strain C57BL/10J, males, in feed, site: liver, lesion: hepatocellular carcinoma, dosed 78 weeks, study length 78 weeks) 214 mg/kg/day; (rat, strain Alpk:APfSD, males, in feed, site: liver, lesion: hepatocellular adenoma, dosed 104 weeks, study length 104 weeks) 62.5 mg/kg/day.

Take `COc1cc(N)ccc1N=Nc1ccccc1`: the carcinogen call by setting is: (mouse, strain B6C3F1, females, in feed, site: liver, lesion: one or several types, types not named, dosed 56 weeks, study length 56 weeks) “negative (inactive)”; (mouse, strain B6C3F1, males, in feed, site: liver, lesion: one or several types, types not named, dosed 56 weeks, study length 56 weeks) “negative (inactive)”.

Turning to `O=NN1CCNCC1`, the TD50 is, setting by setting: (rat, strain MRC, females, in drinking water, site: any site (literature study), lesion: several types, types named in the paper, dosed 60 weeks, study length 127 weeks) 5.51 mg/kg/day; (rat, strain MRC, males, in drinking water, site: any site (literature study), lesion: several types, types named in the paper, dosed 60 weeks, study length 127 weeks) 21.6 mg/kg/day; (rat, strain MRC, males, in drinking water, site: liver, lesion: hepatoma, dosed 60 weeks, study length 127 weeks) 6.52 mg/kg/day.

For the compound `CC(C)N(C(=O)SCC(Cl)=CCl)C(C)C`, the TD50 was 1990 mg/kg/day (mouse, strain B6AKF1, females, oral dosing, site: any site (literature study), lesion: several types, types named in the paper, dosed 85 weeks, study length 85 weeks); 516 mg/kg/day (mouse, strain B6AKF1, females, oral dosing, site: liver, lesion: hepatoma, dosed 85 weeks, study length 85 weeks); 4260 mg/kg/day (mouse, strain B6AKF1, females, oral dosing, site: lung, lesion: adenoma, dosed 85 weeks, study length 85 weeks); 35.4 mg/kg/day (mouse, strain B6AKF1, males, oral dosing, site: any site (literature study), lesion: several types, types named in the paper, dosed 84 weeks, study length 84 weeks); 43 mg/kg/day (mouse, strain B6AKF1, males, oral dosing, site: liver, lesion: hepatoma, dosed 84 weeks, study length 84 weeks); 243 mg/kg/day (mouse, strain B6AKF1, males, oral dosing, site: lung, lesion: adenoma, dosed 84 weeks, study length 84 weeks). Also, the TD50 is, setting by setting: (mouse, strain B6C3F1, females, oral dosing, site: any site (literature study), lesion: several types, types named in the paper, dosed 83 weeks, study length 83 weeks) 90.8 mg/kg/day; (mouse, strain B6C3F1, females, oral dosing, site: liver, lesion: several types, types named in the paper, dosed 83 weeks, study length 83 weeks) 164 mg/kg/day; (mouse, strain B6C3F1, females, oral dosing, site: lung, lesion: adenoma, dosed 83 weeks, study length 83 weeks) 255 mg/kg/day; (mouse, strain B6C3F1, males, oral dosing, site: any site (literature study), lesion: several types, types named in the paper, dosed 84 weeks, study length 84 weeks) 15.6 mg/kg/day; (mouse, strain B6C3F1, males, oral dosing, site: liver, lesion: hepatoma, dosed 84 weeks, study length 84 weeks) 19.4 mg/kg/day; (mouse, strain B6C3F1, males, oral dosing, site: lung, lesion: adenoma, dosed 84 weeks, study length 84 weeks) 113 mg/kg/day.

As for `[Na+]`, the TD50 reads like this: (mouse, strain B6C3F1, females, in drinking water, site: liver, lesion: hyperplastic nodule, dosed 104 weeks, study length 104 weeks) 1.33e+06 mg/kg/day; (mouse, strain B6C3F1, females, in drinking water, site: lung, lesion: papillary tumor, dosed 104 weeks, study length 104 weeks) 4980 mg/kg/day; (mouse, strain B6C3F1, males, in drinking water, site: any site (literature study), lesion: several types, types named in the paper, dosed 104 weeks, study length 104 weeks) 992 mg/kg/day; (mouse, strain B6C3F1, males, in drinking water, site: liver, lesion: hemangioma, dosed 104 weeks, study length 104 weeks) 9550 mg/kg/day; (mouse, strain B6C3F1, males, in drinking water, site: liver, lesion: hyperplastic nodule, dosed 104 weeks, study length 104 weeks) 5970 mg/kg/day; (mouse, strain B6C3F1, males, in drinking water, site: lung, lesion: papillary tumor, dosed 104 weeks, study length 104 weeks) 3740 mg/kg/day. The TD50 (rat, strain ACI, males, in feed, site: forestomach, lesion: papilloma, dosed 52 weeks, study length 52 weeks) is 2660 mg/kg/day and the TD50 (rat, strain Fischer 344, males, in feed, site: adrenal medulla, lesion: pheochromocytoma, dosed 104 weeks, study length 104 weeks) is 2980 mg/kg/day (inactive). In addition, the carcinogen call (rat, strain F344/DuCrj, males, in feed, site: forestomach, lesion: one or several types, types not named, dosed 51 weeks, study length 52 weeks) was “negative (inactive)”; the carcinogen call (rat, strain F344/DuCrj, males, in feed, site: stomach, glandular, lesion: one or several types, types not named, dosed 51 weeks, study length 52 weeks) is “negative (inactive)”; the carcinogen call (rat, strain Wistar, males, in feed, site: stomach, glandular, lesion: one or several types, types not named, dosed 82 weeks, study length 82 weeks) was “negative (inactive)”.

In the case of `CN(Cc1cnc2nc(N)nc(N)c2n1)c1ccc(C(=O)N[C@@H](CCC(=O)O)C(=O)O)cc1`, the carcinogen call is “negative (inactive)” (hamster, strain Syrian Golden, females, in feed, site: any site (literature study), lesion: several types, types named in the paper, dosed 101 weeks, study length 105 weeks); “negative (inactive)” (hamster, strain Syrian Golden, males, in feed, site: any site (literature study), lesion: several types, types named in the paper, dosed 108 weeks, study length 115 weeks); “negative (inactive)” (hamster, strain Syrian Golden, males, in feed, site: liver, lesion: one or several types, types not named, dosed 108 weeks, study length 115 weeks); “negative (inactive)” (mouse, strain Swiss, females, in feed, site: lung, lesion: several types, types named in the paper, dosed 120 weeks, study length 120 weeks); “negative (inactive)” (mouse, strain Swiss, males, in feed, site: any site (literature study), lesion: several types, types named in the paper, dosed 118 weeks, study length 120 weeks); “negative (inactive)” (mouse, strain Swiss, males, in feed, site: liver, lesion: hemangioma, dosed 118 weeks, study length 120 weeks). For the same compound, the carcinogen call is, setting by setting: (mouse, strain Swiss, males, in feed, site: lung, lesion: several types, types named in the paper, dosed 118 weeks, study length 120 weeks) “negative (inactive)”; (rat, strain Sprague-Dawley, females, i.p., site: any site (literature study), lesion: malignant tumor, dosed 104 weeks, study length 104 weeks) “negative (inactive)”; (rat, strain Sprague-Dawley, males, i.p., site: any site (literature study), lesion: malignant tumor, dosed 104 weeks, study length 104 weeks) “negative (inactive)”. The TD50 is, setting by setting: (hamster, strain Syrian Golden, females, in feed, site: liver, lesion: hepatocellular adenoma, dosed 101 weeks, study length 105 weeks) 51.1 mg/kg/day (inactive); (hamster, strain Syrian Golden, females, in feed, site: liver, lesion: several types, types named in the paper, dosed 101 weeks, study length 105 weeks) 167 mg/kg/day; (mouse, strain Swiss, females, in feed, site: any site (literature study), lesion: several types, types named in the paper, dosed 120 weeks, study length 120 weeks) 48 mg/kg/day (inactive); (mouse, strain Swiss, females, in feed, site: liver, lesion: hepatocellular carcinoma, dosed 120 weeks, study length 120 weeks) 65.2 mg/kg/day (inactive); (rat, strain BR 46, males, i.v., site: any site (literature study), lesion: benign tumor, dosed 52 weeks, study length 104 weeks) 0.409 mg/kg/day (inactive); (rat, strain BR 46, males, i.v., site: any site (literature study), lesion: malignant tumor, dosed 52 weeks, study length 104 weeks) 2.96 mg/kg/day (inactive). Besides, the TD50 (rat, strain BR 46, males, i.v., site: any site (literature study), lesion: several types, types named in the paper, dosed 52 weeks, study length 104 weeks) was 0.33 mg/kg/day (inactive).

Take `CC(C)(C)c1cc(CO)cc(C(C)(C)C)c1O`: the TD50 by setting is: (rat, strain NZBW (hooded black and white strain), females, in feed, site: any site (literature study), lesion: several types, types named in the paper, dosed 104 weeks, study length 104 weeks) 3710 mg/kg/day (inactive); (rat, strain NZBW (hooded black and white strain), females, in feed, site: mammary gland, lesion: fibroadenoma, dosed 104 weeks, study length 104 weeks) 3710 mg/kg/day (inactive). Where the note is “rat, strain NZBW (hooded black and white strain), males, in feed, site: any site (literature study), lesion: one or several types, types not named, dosed 104 weeks, study length 104 weeks”, the carcinogen call was “negative (inactive)”.

As for `COc1cc(CNC(=O)CCCC/C=C/C(C)C)ccc1O`, the carcinogen call is “negative (inactive)” (mouse, strain B6C3F1, females, in feed, site: any site (literature study), lesion: several types, types named in the paper, dosed 79 weeks, study length 83 weeks); “negative (inactive)” (mouse, strain B6C3F1, females, in feed, site: liver, lesion: several types, types named in the paper, dosed 79 weeks, study length 83 weeks); “negative (inactive)” (mouse, strain B6C3F1, females, in feed, site: lung, lesion: adenoma, dosed 79 weeks, study length 83 weeks); “negative (inactive)” (mouse, strain B6C3F1, males, in feed, site: liver, lesion: several types, types named in the paper, dosed 79 weeks, study length 83 weeks); “positive” (mouse, strain Swiss albino, males, in feed, site: cecum, lesion: polypoid adenoma, dosed 124 weeks, study length 124 weeks). In addition, the TD50 runs as follows: (mouse, strain B6C3F1, males, in feed, site: any site (literature study), lesion: several types, types named in the paper, dosed 79 weeks, study length 83 weeks) 2040 mg/kg/day (inactive); (mouse, strain B6C3F1, males, in feed, site: lung, lesion: adenoma, dosed 79 weeks, study length 83 weeks) 16100 mg/kg/day (inactive); (mouse, strain Swiss albino, females, in feed, site: cecum, lesion: polypoid adenoma, dosed 152 weeks, study length 152 weeks) 167 mg/kg/day; (mouse, strain Swiss albino, females, in feed, site: duodenum, lesion: adenocarcinoma, dosed 152 weeks, study length 152 weeks) 2310 mg/kg/day; (mouse, strain Swiss albino, females, in feed, site: lung, lesion: adenoma, dosed 152 weeks, study length 152 weeks) 225 mg/kg/day; (mouse, strain Swiss albino, females, in feed, site: lung, lesion: several types, types named in the paper, dosed 152 weeks, study length 152 weeks) 1080 mg/kg/day. Further, under “mouse, strain Swiss albino, males, in feed, site: duodenum, lesion: several types, types named in the paper, dosed 124 weeks, study length 124 weeks”, the TD50 was determined as 404 mg/kg/day.

(Values after PubChem BioAssay AID1745844 (Carcinogenic Potency Database (CPDB), 2022).)
